ChEMBL document CHEMBL3525998, “Metabolism of saikosaponin a in rats: diverse oxidations on the aglycone moiety in liver and intestine in addition to hydrolysis of glycosidic bonds” (Drug Metab Dispos, 2013)

Assays:
Type in all cases: ADME, organism-based
[1] = Drug excretion in Sprague-Dawley rat urine at 15 mg/kg, iv by LC-DAD-IT-TOF-MS analysis; design: dose 15 mg/kg, route intravenous; details: in vivo
[2] = Drug excretion in Sprague-Dawley rat urine assessed as metabolite saikogenin f level at 15 mg/kg, iv by LC-DAD-IT-TOF-MS analysis; design: dose 15 mg/kg, route intravenous; details: in vivo
[3] = Drug excretion in Sprague-Dawley rat urine assessed as metabolite saikogenin f-27-oic acid level at 15 mg/kg, iv by LC-DAD-IT-TOF-MS analysis; design: dose 15 mg/kg, route intravenous; details: in vivo
[4] = Drug recovery in po dosed rat excreted feces measured over 0 to 24 hrs after drug administration by HPLC analysis relative to starting drug dose; details: faeces, read-out: Drug recovery
[5] = Drug excretion in Sprague-Dawley rat urine assessed as metabolite delta1-saikogenin f level at 15 mg/kg, iv by LC-DAD-IT-TOF-MS analysis; design: dose 15 mg/kg, route intravenous; details: in vivo
[6] = Drug excretion in Sprague-Dawley rat bile assessed as metabolite 3-keto-saikogenin f level at 50 mg/kg, po administered through gavage by LC-DAD-IT-TOF-MS analysis; design: dose 50 mg/kg, route oral; details: in vivo
Plasma [7] = assay: Drug metabolism in Sprague-Dawley rat plasma assessed as metabolite saikogenin f-27-oic acid formation at 50 mg/kg, po administered through gavage by LC-DAD-IT-TOF-MS analysis; design: dose 50 mg/kg, route oral; details: in vivo
[8] = Drug excretion in Sprague-Dawley rat feces assessed as metabolite saikogenin f-27-oic acid level at 50 mg/kg, po administered through gavage by LC-DAD-IT-TOF-MS analysis; design: dose 50 mg/kg, route oral; details: in vivo
Plasma [9] = assay: Drug metabolism in Sprague-Dawley rat plasma assessed as metabolite delta1-saikogenin f formation at 15 mg/kg, iv by LC-DAD-IT-TOF-MS analysis; design: dose 15 mg/kg, route intravenous; details: in vivo
[10] = Drug excretion in Sprague-Dawley rat bile assessed as metabolite hydroxysaikosaponin a level at 15 mg/kg, iv by LC-DAD-IT-TOF-MS analysis; design: dose 15 mg/kg, route intravenous; details: in vivo
[11] = Drug excretion in Sprague-Dawley rat feces assessed as metabolite prosaikogenin f level at 15 mg/kg, iv by LC-DAD-IT-TOF-MS analysis; design: dose 15 mg/kg, route intravenous; details: in vivo
Plasma [12] = assay: Drug uptake in Sprague-Dawley rat plasma at 50 mg/kg, po administered through gavage by LC-DAD-IT-TOF-MS analysis; design: dose 50 mg/kg, route oral; details: in vivo
[13] = Drug excretion in Sprague-Dawley rat urine assessed as metabolite prosaikogenin f level at 50 mg/kg, po administered through gavage by LC-DAD-IT-TOF-MS analysis; design: dose 50 mg/kg, route oral; details: in vivo
[14] = Drug excretion in Sprague-Dawley rat bile assessed as metabolite saikogenin f-27-oic acid level at 15 mg/kg, iv by LC-DAD-IT-TOF-MS analysis; design: dose 15 mg/kg, route intravenous; details: in vivo
Plasma [15] = assay: Drug metabolism in Sprague-Dawley rat plasma assessed as metabolite prosaikogenin f formation at 15 mg/kg, iv by LC-DAD-IT-TOF-MS analysis; design: dose 15 mg/kg, route intravenous; details: in vivo
[16] = Drug excretion in Sprague-Dawley rat urine assessed as metabolite saikogenin f-27-oic acid level at 50 mg/kg, po administered through gavage by LC-DAD-IT-TOF-MS analysis; design: dose 50 mg/kg, route oral; details: in vivo
[17] = Drug excretion in Sprague-Dawley rat feces at 15 mg/kg, iv by LC-DAD-IT-TOF-MS analysis; design: dose 15 mg/kg, route intravenous; details: in vivo
[18] = Drug excretion in Sprague-Dawley rat feces assessed as metabolite hydroxysaikosaponin a level at 50 mg/kg, po administered through gavage by LC-DAD-IT-TOF-MS analysis; design: dose 50 mg/kg, route oral; details: in vivo
[19] = Drug excretion in Sprague-Dawley rat urine assessed as metabolite hydroxysaikosaponin a level at 15 mg/kg, iv by LC-DAD-IT-TOF-MS analysis; design: dose 15 mg/kg, route intravenous; details: in vivo
Plasma [20] = assay: Drug metabolism in Sprague-Dawley rat plasma assessed as metabolite saikogenin f formation at 50 mg/kg, po administered through gavage by LC-DAD-IT-TOF-MS analysis; design: dose 50 mg/kg, route oral; details: in vivo

In the case of `C[C@H]1O[C@@H](O[C@H]2CC[C@@]3(C)[C@@H](CC[C@]4(C)[C@@H]3C=C[C@]35OC[C@@]6(CCC(C)(C)C[C@H]63)[C@@H](O)C[C@]54C)[C@]2(C)CO)[C@H](O)[C@@H](O[C@@H]2O[C@H](CO)[C@@H](O)[C@H](O)[C@H]2O)[C@H]1O` [SAIKOSAPONIN A], the Drug excretion [1] is reported as “metabolite_detected”, the Drug excretion [2] is reported as “metabolite_not_detected” and the Drug excretion [3] is reported as “metabolite_not_detected”. For the same compound, the dose excreted [4] was over 50%, the Drug excretion [5] was “metabolite_not_detected” and the Drug excretion [6] was “metabolite_not_detected”. For the same compound, the Drug metabolism (Plasma [7]) was “metabolite_not_detected”, the Drug excretion [8] was “metabolite_detected” and the Drug metabolism (Plasma [9]) was “metabolite_not_detected”. The Drug excretion [10] was “metabolite_detected”, the Drug excretion [11] was “metabolite_detected” and the Drug uptake (Plasma [12]) was “Active”. For the same compound, the Drug excretion [13] was “metabolite_detected”, the Drug excretion [14] was “metabolite_not_detected” and the Drug metabolism (Plasma [15]) was “metabolite_detected”. The Drug excretion [16] was “metabolite_detected”, the Drug excretion [17] was “metabolite_not_detected” and the Drug excretion [18] was “metabolite_not_detected”. The Drug excretion [19] was “metabolite_not_detected” and the Drug metabolism (Plasma [20]) was “metabolite_not_detected”.
